Tested on: Rat platelets
Assay: Platelet aggregation inhibition (4-channel platelet lumi-aggregometer)
Type: cell-based
Conditions: compound 100 μM, compared to control (vehicle), FIG. 2
Procedure: In order to evaluate the platelet aggregation activity of MBP-11902 according to Present Example 1 of the present disclosure, the platelet aggregation was activated in rat plasma with platelet aggregation factors and agonists, thrombin, collagen, ADP (adenosine diphosphate), U46619 (thromboxane A2 agonist), and PMA (phorbol-12-myristate-13-acetate), and then, the rat plasma was pretreated with vehicle (distilled water) and various doses (100, 300, and 500 μM) of MBP-11902, and then a 4-channel platelet lumi-aggregometer (Chronolog Corp, Havertown, PA) was used to measure the value indicating the platelet aggregation level, and the results are shown in FIG. 1. […]
Rat platelets were placed in HEPES-Tyrode buffer at a concentration of 3×10^8 cells/mL and pretreated with the vehicle (distilled water) and various doses (100, 300, and 500 μM) of MBP-11902 at 37° C. for 15 minutes, and then activated with collagen, thrombin, ADP, U46619 (endoperoxide/thromboxane analogs), and PMA (PKC activator), which are known as agonists in the platelet aggregation system. The platelet aggregation was induced at 1,000 rpm in a platelet aggregation system (Chronolog Corp, Havertown, PA) at 37° C. and then, the platelet aggregation level was measured.

## O=C(O)c1cc(-c2ccc(F)cc2F)ccc1O [NSAID, Diflunisal]
Collagen 1 μg/mL
  platelet aggregation induced by collagen (comparative evaluation): significantly inhibit
Thrombin 0.05 U/ml
  platelet aggregation induced by thrombin (comparative evaluation): significantly inhibit
